Assay results from patent US20260265259A1, “SUBSTITUTED 6-IMIDAZOPYRIDAZINE IL-17A MODULATORS AND USES THEREOF” (DICE ALPHA, INC., priority 2023, published 2026).

tested on: IL-17A/A; test: IL-17A/A HEK-Blue cell assay; assay type: cell-based; conditions: HEK-Blue, 20 h, IL-17A/A inhibition, HEK-Blue IL-17A reporter cell line, IL17A/A 5 ng/mL, SEAP read at A630, read-out: AA IC50
Description: The HEK-Blue IL-17A reporter cell line (Fisher #NC1408637) was used for cell-based IL-17A/A inhibition assays. Cells were grown and prepared for assays according to the manufacturer's instructions. This cell line consists of HEK 293 cells that were designed to expressed IL-17RA, IL-17RC, and the Act1 adapter molecule, the combination of which, when stimulated by IL-17A/A or IL17A/F activates a NFκB promoter and drives expression of the recombinant Secreted Alkaline Phosphatase (SEAP) gene. Media from the cells is then added to a development reagent (Quanti-Blue Substrate, Fisher #NC9711613), and read at A630.
Compounds were dispensed in DMSO to an empty clear 384-well tissue culture plate in a titration ranging from 10 μM to 27 pM, with DMSO added to every well to a final concentration of 0.1%. Cells were then added to the plate (45 μL/well at a concentration of 280,000 cells/mL). IL17A/A (Genscript #Z03228) or IL17A/F (R&D Systems) was added to the plate to a final concentration of 5 ng/mL and a final well volume of 50 μL. The cells, compound, and IL-17A/A or IL17A/F were then incubated for 20 hours before media was removed for SEAP analysis. The resulting inhibition curve was then analyzed using Dotmatics' integrated 4-parameter fit screening protocol to generate IC50 values.

CCn1nccc1C(=O)N[C@H](c1cn2nc(C[C@H]3C[C@@H](C(F)(F)F)CNC3=O)c(N3CC4(CCOCC4)C3)cc2n1)C1CCC(F)(F)CC1 [Compound 48] and CCn1nccc1C(=O)N[C@H](c1cn2nc(C[C@H]3C[C@@H](C(F)(F)F)CNC3=O)c(N3CCC4(COC4)C3)cc2n1)C1CCC(F)(F)CC1 [Compound 49] cannot be ordered by IC50: less than 100 nM for the first, less than 100 nM for the second.

CCn1nccc1C(=O)N[C@H](c1cn2nc(C[C@H]3C[C@@H](C(F)(F)F)CNC3=O)c(N3CC4CCC(C3)O4)cc2n1)C1CCC(F)(F)CC1 [Compound 50] and CCn1nccc1C(=O)N[C@H](c1cn2nc(C[C@H]3C[C@@H](C(F)(F)F)CNC3=O)c(N3CC(OC)C3)cc2n1)C1CCC(F)(F)CC1 [Compound 79] cannot be ordered by IC50: less than 100 nM for the first, less than 100 nM for the second.

CCn1nccc1C(=O)N[C@H](c1cn2nc(C[C@H]3C[C@@H](C(F)(F)F)CNC3=O)c(N3CC4CC3CO4)cc2n1)C1CCC(F)(F)CC1 (stereo partly drawn) [Compound 51] and CCn1nccc1C(=O)N[C@H](c1cn2nc(C[C@H]3C[C@@H](C(F)(F)F)CNC3=O)c(N3CCC(OC)C3)cc2n1)C1CCC(F)(F)CC1 (stereo partly drawn) [Compound 77] cannot be ordered by IC50: less than 100 nM for the first, less than 100 nM for the second.

O=C(N[C@H](c1cn2nc(C[C@H]3C[C@@H](C(F)(F)F)CNC3=O)c(C3CCOCC3)cc2n1)C1CCC(F)(F)CC1)c1nonc1C1CC1 [Compound 54] and O=C(N[C@H](c1cn2nc(C[C@H]3C[C@@H](C(F)(F)F)CNC3=O)c(C3CCOCC3)cc2n1)[C@H]1CCCC(F)(F)C1)c1nonc1C1CC1 [Compound 57] cannot be ordered by IC50: less than 100 nM for the first, less than 100 nM for the second.

CCn1nccc1C(=O)N[C@H](c1cn2nc(C[C@H]3C[C@@H](C(F)(F)F)CNC3=O)c(C3CCOCC3)cc2n1)[C@H]1CCCC(F)(F)C1 [Compound 55] and CCn1nccc1C(=O)N[C@H](c1cn2nc(C[C@H]3C[C@@H](C(F)(F)F)CNC3=O)c(C3CCOCC3)cc2n1)[C@@H]1CCCC(F)(F)C1 [Compound 56] cannot be ordered by IC50: less than 100 nM for the first, less than 100 nM for the second.

First: CCn1nccc1C(=O)N[C@H](c1cn2nc(C[C@H]3C[C@@H](C(F)(F)F)CNC3=O)c(C3=CCOC3)cc2n1)C1CCC(F)(F)CC1 [Compound 58]
Second: CCn1nccc1C(=O)N[C@H](c1cn2nc(C[C@H]3C[C@@H](C(F)(F)F)CNC3=O)c(C3CCCO3)cc2n1)C1CCC(F)(F)CC1 (stereo partly drawn) [Compound 83]
The IC50 of the first is higher: 100 to 1000 nM for the first, less than 100 nM for the second.

O=C(N[C@H](c1cn2nc(C[C@H]3C[C@@H](C(F)(F)F)CNC3=O)c(C3CCOCC3)cc2n1)[C@@H]1CCCC(F)(F)C1)c1nonc1C1CC1 [Compound 59] and O=C(N[C@H](c1cn2nc(C[C@H]3C[C@@H](C(F)(F)F)CNC3=O)c(C3CCOC3)cc2n1)[C@H]1CCCC(F)(F)C1)c1nonc1C1CC1 (stereo partly drawn) [Compound 69] cannot be ordered by IC50: less than 100 nM for the first, less than 100 nM for the second.

CCn1nccc1C(=O)N[C@H](c1cn2nc(C[C@H]3C[C@@H](C(F)(F)F)CNC3=O)c(C3CCN(C)CC3)cc2n1)C1CCC(F)(F)CC1 [Compound 60] and CCn1nccc1C(=O)N[C@H](c1cn2nc(C[C@H]3C[C@@H](C(F)(F)F)CNC3=O)c(C3CCN(C)C3)cc2n1)C1CCC(F)(F)CC1 (stereo partly drawn) [Compound 61] fall in the same range of IC50: 100 to 1000 nM for the first, 100 to 1000 nM for the second.

CCn1nccc1C(=O)N[C@H](c1cn2nc(C[C@H]3C[C@@H](C(F)(F)F)CNC3=O)c(C3CCCOC3)cc2n1)[C@H]1CCCC(F)(F)C1 (stereo partly drawn) [Compound 63] and CCn1nccc1C(=O)N[C@H](c1cn2nc(C[C@H]3C[C@@H](C(F)(F)F)CNC3=O)c(C3CCCOC3)cc2n1)[C@@H]1CCCC(F)(F)C1 (stereo partly drawn) [Compound 64] cannot be ordered by IC50: less than 100 nM for the first, less than 100 nM for the second.

CCn1nccc1C(=O)N[C@H](c1cn2nc(C[C@H]3C[C@@H](C(F)(F)F)CNC3=O)c(C3CCOC3)cc2n1)[C@H]1CCCC(F)(F)C1 (stereo partly drawn) [Compound 67] and CCn1nccc1C(=O)N[C@H](c1cn2nc(C[C@H]3C[C@@H](C(F)(F)F)CNC3=O)c(C3CCOC3)cc2n1)[C@@H]1CCCC(F)(F)C1 (stereo partly drawn) [Compound 68] cannot be ordered by IC50: less than 100 nM for the first, less than 100 nM for the second.

O=C(N[C@H](c1cn2nc(C[C@H]3C[C@@H](C(F)(F)F)CNC3=O)c(C3CCOC3)cc2n1)[C@@H]1CCCC(F)(F)C1)c1nonc1C1CC1 (stereo partly drawn) [Compound 70] and CC(C)n1nccc1C(=O)N[C@H](c1cn2nc(C[C@H]3C[C@@H](C(F)(F)F)CNC3=O)c(C3CCOCC3)cc2n1)C1CCC(F)(F)CC1 [Compound 75] cannot be ordered by IC50: less than 100 nM for the first, less than 100 nM for the second.

CCn1nccc1C(=O)N[C@H](c1cn2nc(C[C@H]3C[C@@H](C(F)(F)F)CNC3=O)c(C3CCCCC3)cc2n1)C1CCC(F)(F)CC1 [Compound 76] and CCn1nccc1C(=O)N[C@H](c1cn2nc(C[C@H]3C[C@@H](C(F)(F)F)CNC3=O)c(C3CCCCO3)cc2n1)C1CCC(F)(F)CC1 (stereo partly drawn) [Compound 84] cannot be ordered by IC50: less than 100 nM for the first, less than 100 nM for the second.

CCn1nccc1C(=O)N[C@H](c1cn2nc(C[C@H]3C[C@@H](C(F)(F)F)CNC3=O)c(N3CCN(C4CC4)CC3)cc2n1)C1CCC(F)(F)CC1 [Compound 80] and CCn1nccc1C(=O)N[C@H](c1cn2nc(C[C@H]3C[C@@H](C(F)(F)F)CNC3=O)c(N3CCN(C)C4(CC4)C3)cc2n1)C1CCC(F)(F)CC1 [Compound 82] cannot be ordered by IC50: less than 100 nM for the first, less than 100 nM for the second.

CCn1nccc1C(=O)N[C@H](c1cn2nc(C[C@H]3C[C@@H](C(F)(F)F)CNC3=O)c(N3CCOC4(CC4)C3)cc2n1)C1CCC(F)(F)CC1 [Compound 81] and CCn1nccc1C(=O)N[C@H](c1cn2nc(C[C@H]3C[C@@H](C(F)(F)F)CNC3=O)c(C3CCOC(C)(C)C3)cc2n1)C1CCC(F)(F)CC1 (stereo partly drawn) [Compound 87] cannot be ordered by IC50: less than 100 nM for the first, less than 100 nM for the second.

CCn1nccc1C(=O)N[C@H](c1cn2nc(C[C@H]3C[C@@H](C(F)(F)F)CNC3=O)c(C3CCOCC3)cc2n1)C1CCC(C)CC1 (stereo partly drawn) [Compound 86] gave an IC50 of less than 100 nM.

same assay, conditions: IL-17A/A inhibition, HEK-Blue IL-17A reporter cell line, IL17A/A 5 ng/mL, 20 hours, SEAP read at A630; read-out: AA IC50

CCn1nccc1C(=O)N[C@H](c1cn2nc(C[C@H]3C[C@@H](C(F)(F)F)CNC3=O)c(N3CC4CC3CO4)cc2n1)C1CCC(F)(F)CC1 (stereo partly drawn) [Compound 52] and CCn1nccc1C(=O)N[C@H](c1cn2nc(C[C@H]3C[C@@H](C(F)(F)F)CNC3=O)c(N3CCC(OC)C3)cc2n1)C1CCC(F)(F)CC1 (stereo partly drawn) [Compound 78] cannot be ordered by IC50: less than 100 nM for the first, less than 100 nM for the second.

First: CCn1nccc1C(=O)N[C@H](c1cn2nc(C[C@H]3C[C@@H](C(F)(F)F)CNC3=O)c(C3CCN(C)C3)cc2n1)C1CCC(F)(F)CC1 (stereo partly drawn) [Compound 62]
Second: CCn1nccc1C(=O)N[C@H](c1cn2nc(C[C@H]3C[C@@H](C(F)(F)F)CNC3=O)c(C3CCCCO3)cc2n1)C1CCC(F)(F)CC1 (stereo partly drawn) [Compound 85]
The IC50 of the first is higher: 100 to 1000 nM for the first, less than 100 nM for the second.

CCn1nccc1C(=O)N[C@H](c1cn2nc(C[C@H]3C[C@@H](C(F)(F)F)CNC3=O)c(C3CCCOC3)cc2n1)[C@H]1CCCC(F)(F)C1 (stereo partly drawn) [Compound 65] and CCn1nccc1C(=O)N[C@H](c1cn2nc(C[C@H]3C[C@@H](C(F)(F)F)CNC3=O)c(C3CCCOC3)cc2n1)[C@@H]1CCCC(F)(F)C1 (stereo partly drawn) [Compound 66] cannot be ordered by IC50: less than 100 nM for the first, less than 100 nM for the second.

CCn1nccc1C(=O)N[C@H](c1cn2nc(C[C@H]3C[C@@H](C(F)(F)F)CNC3=O)c(C3CCOC3)cc2n1)[C@H]1CCCC(F)(F)C1 (stereo partly drawn) [Compound 71] and CCn1nccc1C(=O)N[C@H](c1cn2nc(C[C@H]3C[C@@H](C(F)(F)F)CNC3=O)c(C3CCOC3)cc2n1)[C@@H]1CCCC(F)(F)C1 (stereo partly drawn) [Compound 72] cannot be ordered by IC50: less than 100 nM for the first, less than 100 nM for the second.

O=C(N[C@H](c1cn2nc(C[C@H]3C[C@@H](C(F)(F)F)CNC3=O)c(C3CCOC3)cc2n1)[C@H]1CCCC(F)(F)C1)c1nonc1C1CC1 (stereo partly drawn) [Compound 73] and O=C(N[C@H](c1cn2nc(C[C@H]3C[C@@H](C(F)(F)F)CNC3=O)c(C3CCOC3)cc2n1)[C@@H]1CCCC(F)(F)C1)c1nonc1C1CC1 (stereo partly drawn) [Compound 74] cannot be ordered by IC50: less than 100 nM for the first, less than 100 nM for the second.
